BindingDB's records for doi:10.1016/S0960-894X(02)00564-4 (Universita Degli Studi Di Firenze, 2002)

Target: T1, Collagenase ColG (Hathewaya histolytica, UniProt Q9X721)
T1 sequence (Q9X721 whole entry): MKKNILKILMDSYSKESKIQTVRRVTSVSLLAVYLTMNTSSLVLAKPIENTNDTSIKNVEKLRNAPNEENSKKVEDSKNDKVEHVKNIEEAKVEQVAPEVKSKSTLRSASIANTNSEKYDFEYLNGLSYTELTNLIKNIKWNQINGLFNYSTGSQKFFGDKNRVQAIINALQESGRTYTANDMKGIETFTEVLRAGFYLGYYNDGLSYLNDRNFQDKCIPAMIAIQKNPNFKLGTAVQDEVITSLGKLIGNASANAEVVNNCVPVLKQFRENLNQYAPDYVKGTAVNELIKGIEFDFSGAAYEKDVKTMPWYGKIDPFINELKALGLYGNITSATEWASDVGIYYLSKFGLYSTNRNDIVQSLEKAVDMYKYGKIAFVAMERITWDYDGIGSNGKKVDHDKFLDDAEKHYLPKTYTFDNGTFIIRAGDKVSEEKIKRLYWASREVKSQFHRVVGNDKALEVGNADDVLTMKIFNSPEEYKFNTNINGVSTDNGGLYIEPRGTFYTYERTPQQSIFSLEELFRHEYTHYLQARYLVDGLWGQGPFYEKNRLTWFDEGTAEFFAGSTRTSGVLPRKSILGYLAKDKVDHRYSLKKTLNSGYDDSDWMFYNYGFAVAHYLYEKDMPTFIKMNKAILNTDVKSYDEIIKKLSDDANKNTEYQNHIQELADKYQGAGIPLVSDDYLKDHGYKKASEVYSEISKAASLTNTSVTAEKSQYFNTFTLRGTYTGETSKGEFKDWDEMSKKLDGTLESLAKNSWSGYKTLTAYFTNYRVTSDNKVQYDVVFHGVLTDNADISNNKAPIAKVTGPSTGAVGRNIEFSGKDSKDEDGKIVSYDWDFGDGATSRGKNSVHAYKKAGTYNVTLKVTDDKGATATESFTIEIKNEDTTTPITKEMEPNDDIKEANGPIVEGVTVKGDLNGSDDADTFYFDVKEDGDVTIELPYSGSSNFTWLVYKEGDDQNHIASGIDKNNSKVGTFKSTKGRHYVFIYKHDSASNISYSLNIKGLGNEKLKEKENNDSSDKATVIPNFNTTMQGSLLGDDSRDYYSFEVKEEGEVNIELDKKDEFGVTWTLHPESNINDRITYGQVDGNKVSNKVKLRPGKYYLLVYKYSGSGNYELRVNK
Test: MMP Enzyme Inhibition Assay
Procedure: Initial rates for the hydrolysis of the thioester substrate were used for assessing the catalytic activity and inhibition of the MMPs by the spectrophotometric method. The change of absorbance at 405 nm was monitored. The inhibition constant Ki was then determined by using Easson-Stedman plots and a linear regression program.

Cc1cc(C)c(S(=O)(=O)NC(Cc2ccccc2)C(=O)NC(C)C(=O)Nc2nnc(S)s2)c(C)c1 (stereo unspecified) [3-phenyl-N-{1-[(5-sulfanyl-1,3,4-thiadiazol-2-yl)carbamoyl]ethyl}-2-[(2,4,6-trimethylbenzene)sulfonamido]propanamide]
Ki: 17 µM

CC(NC(=O)C(Cc1ccccc1)NS(=O)(=O)c1ccc([N+](=O)[O-])cc1)C(=O)Nc1nnc(S)s1 (stereo unspecified) [2-[(4-nitrobenzene)sulfonamido]-3-phenyl-N-{1-[(5-sulfanyl-1,3,4-thiadiazol-2-yl)carbamoyl]ethyl}propanamide]
Ki: 13 µM

Cc1ccc(S(=O)(=O)NC(=O)NC(Cc2ccccc2)C(=O)NC(C)C(=O)Nc2nnc(S)s2)cc1 (stereo unspecified) [2-({[(4-methylbenzene)sulfonyl]carbamoyl}amino)-3-phenyl-N-{1-[(5-sulfanyl-1,3,4-thiadiazol-2-yl)carbamoyl]ethyl}propanamide]
Ki: 4 µM

COc1ccc(S(=O)(=O)NC(Cc2ccccc2)C(=O)NC(C)C(=O)Nc2nnc(S)s2)cc1 (stereo unspecified) [2-[(4-methoxybenzene)sulfonamido]-3-phenyl-N-{1-[(5-sulfanyl-1,3,4-thiadiazol-2-yl)carbamoyl]ethyl}propanamide]
Ki: 14 µM

CC(NC(=O)C(Cc1ccccc1)NS(=O)(=O)c1cccs1)C(=O)Nc1nnc(S)s1 (stereo unspecified) [3-phenyl-N-{1-[(5-sulfanyl-1,3,4-thiadiazol-2-yl)carbamoyl]ethyl}-2-(thiophene-2-sulfonamido)propanamide]
Ki: 9 µM

CC(NC(=O)C(Cc1ccccc1)NS(=O)(=O)CC12CCC(CC1=O)C2(C)C)C(=O)Nc1nnc(S)s1 (stereo unspecified) [2-[({7,7-dimethyl-2-oxobicyclo[2.2.1]heptan-1-yl}methane)sulfonamido]-3-phenyl-N-{1-[(5-sulfanyl-1,3,4-thiadiazol-2-yl)carbamoyl]ethyl}propanamide]
Ki: 25 µM

CC(NC(=O)C(Cc1ccccc1)NC(=O)NS(=O)(=O)c1ccccc1)C(=O)Nc1nnc(S)s1 (stereo unspecified) [2-{[(benzenesulfonyl)carbamoyl]amino}-3-phenyl-N-{1-[(5-sulfanyl-1,3,4-thiadiazol-2-yl)carbamoyl]ethyl}propanamide]
Ki: 3 µM

CC(=O)Nc1ccc(S(=O)(=O)NC(Cc2ccccc2)C(=O)NC(C)C(=O)Nc2nnc(S)s2)cc1 (stereo unspecified) [2-[(4-acetamidobenzene)sulfonamido]-3-phenyl-N-{1-[(5-sulfanyl-1,3,4-thiadiazol-2-yl)carbamoyl]ethyl}propanamide]
Ki: 16 µM

CC(NC(=O)C(Cc1ccccc1)NS(=O)(=O)c1ccc(I)cc1)C(=O)Nc1nnc(S)s1 (stereo unspecified) [2-[(4-iodobenzene)sulfonamido]-3-phenyl-N-{1-[(5-sulfanyl-1,3,4-thiadiazol-2-yl)carbamoyl]ethyl}propanamide]
Ki: 14 µM

CC(NC(=O)C(Cc1ccccc1)NS(=O)(=O)c1ccc(Br)cc1)C(=O)Nc1nnc(S)s1 (stereo unspecified) [2-[(4-bromobenzene)sulfonamido]-3-phenyl-N-{1-[(5-sulfanyl-1,3,4-thiadiazol-2-yl)carbamoyl]ethyl}propanamide]
Ki: 16 µM

CC(NC(=O)C(Cc1ccccc1)NS(=O)(=O)c1cccc(C(F)(F)F)c1)C(=O)Nc1nnc(S)s1 (stereo unspecified) [3-phenyl-N-{1-[(5-sulfanyl-1,3,4-thiadiazol-2-yl)carbamoyl]ethyl}-2-{[3-(trifluoromethyl)benzene]sulfonamido}propanamide]
Ki: 9 µM

CC(NC(=O)C(Cc1ccccc1)NS(=O)(=O)c1cccc2c(N(C)C)cccc12)C(=O)Nc1nnc(S)s1 (stereo unspecified) [2-{[5-(dimethylamino)naphthalene-1-]sulfonamido}-3-phenyl-N-{1-[(5-sulfanyl-1,3,4-thiadiazol-2-yl)carbamoyl]ethyl}propanamide]
Ki: 43 µM

CC(NC(=O)C(Cc1ccccc1)NS(=O)(=O)c1cccc2cccnc12)C(=O)Nc1nnc(S)s1 (stereo unspecified) [3-phenyl-2-(quinoline-8-sulfonamido)-N-{1-[(5-sulfanyl-1,3,4-thiadiazol-2-yl)carbamoyl]ethyl}propanamide]
Ki: 36 µM

CC(NC(=O)C(Cc1ccccc1)NS(=O)(=O)c1cc(Cl)ccc1Cl)C(=O)Nc1nnc(S)s1 (stereo unspecified) [2-[(2,5-dichlorobenzene)sulfonamido]-3-phenyl-N-{1-[(5-sulfanyl-1,3,4-thiadiazol-2-yl)carbamoyl]ethyl}propanamide]
Ki: 15 µM

CC(NC(=O)C(Cc1ccccc1)NS(=O)(=O)c1c(F)c(F)c(F)c(F)c1F)C(=O)Nc1nnc(S)s1 (stereo unspecified) [2-[(2,3,4,5,6-pentafluorobenzene)sulfonamido]-3-phenyl-N-{1-[(5-sulfanyl-1,3,4-thiadiazol-2-yl)carbamoyl]ethyl}propanamide]
Ki: 5 µM

CC(NC(=O)C(Cc1ccccc1)NS(=O)(=O)Cc1ccccc1)C(=O)Nc1nnc(S)s1 (stereo unspecified) [3-phenyl-2-(phenylmethane)sulfonamido-N-{1-[(5-sulfanyl-1,3,4-thiadiazol-2-yl)carbamoyl]ethyl}propanamide]
Ki: 19 µM

CC(NC(=O)C(Cc1ccccc1)NC(=O)NS(=O)(=O)c1ccc(Cl)cc1)C(=O)Nc1nnc(S)s1 (stereo unspecified) [2-({[(4-chlorobenzene)sulfonyl]carbamoyl}amino)-3-phenyl-N-{1-[(5-sulfanyl-1,3,4-thiadiazol-2-yl)carbamoyl]ethyl}propanamide]
Ki: 0.3 µM

Cc1ccc(S(=O)(=O)NC(Cc2ccccc2)C(=O)NC(C)C(=O)Nc2nnc(S)s2)cc1 (stereo unspecified) [2-[(4-methylbenzene)sulfonamido]-3-phenyl-N-{1-[(5-sulfanyl-1,3,4-thiadiazol-2-yl)carbamoyl]ethyl}propanamide]
Ki: 15 µM

CC(NC(=O)C(Cc1ccccc1)NC(=O)NS(=O)(=O)c1ccc(F)cc1)C(=O)Nc1nnc(S)s1 (stereo unspecified) [2-({[(4-fluorobenzene)sulfonyl]carbamoyl}amino)-3-phenyl-N-{1-[(5-sulfanyl-1,3,4-thiadiazol-2-yl)carbamoyl]ethyl}propanamide]
Ki: 0.2 µM

CC(NC(=O)C(Cc1ccccc1)NS(=O)(=O)c1ccc(F)cc1)C(=O)Nc1nnc(S)s1 (stereo unspecified) [2-[(4-fluorobenzene)sulfonamido]-3-phenyl-N-{1-[(5-sulfanyl-1,3,4-thiadiazol-2-yl)carbamoyl]ethyl}propanamide]
Ki: 21 µM

CC(NC(=O)C(Cc1ccccc1)NS(=O)(=O)c1ccc2ccccc2c1)C(=O)Nc1nnc(S)s1 (stereo unspecified) [2-(naphthalene-2-sulfonamido)-3-phenyl-N-{1-[(5-sulfanyl-1,3,4-thiadiazol-2-yl)carbamoyl]ethyl}propanamide]
Ki: 40 µM
